Experimental data: US10376520B2, “Methods for the treatment of cardiovascular disorders” (Galapagos NV, priority 2015, dated 2019)

System: RA patients
Experiment: Atherogenic index, Study 1 (RA patients, add-on to MTX)
Format: in vivo, human
Details: for Atherogenic index Mean CFB - 24 weeks results / Atherogenic index Mean percentage CFB - 24 weeks results / Atherogenic index Median CFB - 24 weeks results: 200 mg q.d. continued over 24 weeks
Description: As used herein, the term ‘atherogenic index’ refers to
Double-blind, placebo-controlled add on study in subjects with moderately to severely active RA who have an inadequate response to methotrexate (MTX) (oral or parenteral).
Compound 1 (dosed as a [Compound 1:HCl:3H2O]) is dosed for twelve weeks once daily (q.d.) (50 mg, 100 mg or 200 mg) or twice daily (b.i.d.) (25 mg, 50 mg or 100 mg); or placebo.
At Week 12, the subjects on placebo who have not achieved 20% improvement in swollen joint count (SJC66) and tender joint count (TJC68) are re-randomized automatically to receive Compound 1 (dosed as a [Compound 1:HCl:3H2O]) either at 100 mg q.d. or 50 mg b.i.d. doses in a blinded fashion; subjects on 50 mg q.d. who have not achieved 20% improvement in SJC66 and TJC68 will be assigned to 100 mg q.d. and subjects on 25 mg b.i.d. that have not achieved a 20% improvement in SJC66 and TJC68 will be assigned to 50 mg b.i.d. Subjects who switch treatment at week 12 are handled as if they discontinued at week 12 for the purpose of statistical analysis, whereas subjects in the other groups will maintain their randomized treatment until Week 24.
The atherogenic index has been identified to be a good predictor of cardiovascular disorders risks and is calculated as follows: […]

[1] = 2 × 25 mg (b.i.d. group), week 1
[2] = 2 × 25 mg (b.i.d. group), week 2
[3] = 2 × 25 mg (b.i.d. group), week 4
[4] = 2 × 25 mg (b.i.d. group), week 8
[5] = 2 × 25 mg (b.i.d. group), week 12
[6] = 2 × 50 mg (b.i.d. group), week 1
[7] = 2 × 50 mg (b.i.d. group), week 2
[8] = 2 × 50 mg (b.i.d. group), week 4
[9] = 2 × 50 mg (b.i.d. group), week 8
[10] = 2 × 50 mg (b.i.d. group), week 12
[11] = 2 × 100 mg (b.i.d. group), week 1

## O=C(Nc1nc2cccc(-c3ccc(CN4CCS(=O)(=O)CC4)cc3)n2n1)C1CC1 [Compound 1, cyclopropanecarboxylic acid {5-[4-(1,1-dioxo-thiomorpholin-4-ylmethyl)-phenyl]-[1,2,4]triazolo[1,5-a]pyridin-2yl}-amide]
100 mg q.d., week 12
  Atherogenic index Median CFB - 12 weeks results: -0.10 mmol/L
Week 1
  Atherogenic index Mean CFB - 24 weeks results: -0.17 mmol/L
  Atherogenic index Mean percentage CFB - 24 weeks results: −2.63%
  Atherogenic index Median CFB - 24 weeks results: -0.10 mmol/L
Week 2
  Atherogenic index Mean CFB - 24 weeks results: -0.35 mmol/L
  Atherogenic index Mean percentage CFB - 24 weeks results: −7.45%
  Atherogenic index Median CFB - 24 weeks results: -0.25 mmol/L
Week 4
  Atherogenic index Mean CFB - 24 weeks results: -0.37 mmol/L
  Atherogenic index Mean percentage CFB - 24 weeks results: −7.97%
  Atherogenic index Median CFB - 24 weeks results: -0.30 mmol/L
Week 8
  Atherogenic index Mean CFB - 24 weeks results: -0.36 mmol/L
  Atherogenic index Mean percentage CFB - 24 weeks results: −7.92%
  Atherogenic index Median CFB - 24 weeks results: -0.30 mmol/L
Week 12
  Atherogenic index Mean CFB - 24 weeks results: -0.35 mmol/L
  Atherogenic index Mean percentage CFB - 24 weeks results: −6.85%
  Atherogenic index Median CFB - 24 weeks results: -0.30 mmol/L
Week 16
  Atherogenic index Mean CFB - 24 weeks results: -0.40 mmol/L
  Atherogenic index Mean percentage CFB - 24 weeks results: −8.14%
  Atherogenic index Median CFB - 24 weeks results: -0.40 mmol/L
Week 20
  Atherogenic index Mean CFB - 24 weeks results: -0.48 mmol/L
  Atherogenic index Mean percentage CFB - 24 weeks results: −8.84%
  Atherogenic index Median CFB - 24 weeks results: -0.40 mmol/L
Week 24
  Atherogenic index Mean CFB - 24 weeks results: -0.34 mmol/L
  Atherogenic index Mean percentage CFB - 24 weeks results: −6.14%
  Atherogenic index Median CFB - 24 weeks results: -0.30 mmol/L
200 mg q.d., week 1
  Atherogenic index Mean CFB: -0.17 mmol/L
  Atherogenic index Mean percentage CFB - 12 weeks results: −3%
  Atherogenic index Median CFB - 12 weeks results: -0.10 mmol/L
200 mg q.d., week 2
  Atherogenic index Mean CFB: -0.35 mmol/L
  Atherogenic index Mean percentage CFB - 12 weeks results: −7%
  Atherogenic index Median CFB - 12 weeks results: -0.25 mmol/L
200 mg q.d., week 4
  Atherogenic index Mean CFB: -0.37 mmol/L
  Atherogenic index Mean percentage CFB - 12 weeks results: −8%
  Atherogenic index Median CFB - 12 weeks results: -0.30 mmol/L
200 mg q.d., week 8
  Atherogenic index Mean CFB: -0.36 mmol/L
  Atherogenic index Mean percentage CFB - 12 weeks results: −8%
  Atherogenic index Median CFB - 12 weeks results: -0.30 mmol/L
200 mg q.d., week 12
  Atherogenic index Mean CFB: -0.35 mmol/L
  Atherogenic index Mean percentage CFB - 12 weeks results: −7%
  Atherogenic index Median CFB - 12 weeks results: -0.30 mmol/L
[1]
  Atherogenic index Mean CFB: 0.07 mmol/L
  Atherogenic index Mean percentage CFB - 12 weeks results: 3%
  Atherogenic index Median CFB - 12 weeks results: 0.10 mmol/L
[2]
  Atherogenic index Mean CFB: -0.03 mmol/L
  Atherogenic index Mean percentage CFB - 12 weeks results: 0%
  Atherogenic index Median CFB - 12 weeks results: -0.10 mmol/L
[3]
  Atherogenic index Mean CFB: -0.04 mmol/L
  Atherogenic index Mean percentage CFB - 12 weeks results: 0%
  Atherogenic index Median CFB - 12 weeks results: 0.00 mmol/L
[4]
  Atherogenic index Mean CFB: -0.08 mmol/L
  Atherogenic index Mean percentage CFB - 12 weeks results: −1%
  Atherogenic index Median CFB - 12 weeks results: -0.10 mmol/L
[5]
  Atherogenic index Mean CFB: 0.00 mmol/L
  Atherogenic index Mean percentage CFB - 12 weeks results: 2%
  Atherogenic index Median CFB - 12 weeks results: -0.10 mmol/L
[6]
  Atherogenic index Mean CFB: -0.06 mmol/L
  Atherogenic index Mean percentage CFB - 12 weeks results: 0%
  Atherogenic index Median CFB - 12 weeks results: 0.00 mmol/L
[7]
  Atherogenic index Mean CFB: -0.21 mmol/L
  Atherogenic index Mean percentage CFB - 12 weeks results: −5%
  Atherogenic index Median CFB - 12 weeks results: -0.10 mmol/L
[8]
  Atherogenic index Mean CFB: -0.14 mmol/L
  Atherogenic index Mean percentage CFB - 12 weeks results: −3%
  Atherogenic index Median CFB - 12 weeks results: -0.10 mmol/L
[9]
  Atherogenic index Mean CFB: -0.18 mmol/L
  Atherogenic index Mean percentage CFB - 12 weeks results: −3%
  Atherogenic index Median CFB - 12 weeks results: -0.10 mmol/L
[10]
  Atherogenic index Mean CFB: -0.07 mmol/L
  Atherogenic index Mean percentage CFB - 12 weeks results: −1%
  Atherogenic index Median CFB - 12 weeks results: 0.00 mmol/L
[11]
  Atherogenic index Mean CFB: -0.05 mmol/L
  Atherogenic index Mean percentage CFB - 12 weeks results: 0%
  Atherogenic index Median CFB - 12 weeks results: 0.00 mmol/L
2 × 100 mg (b.i.d. group), week 2
  Atherogenic index Mean CFB: -0.19 mmol/L
